One series deals with Zluc cells. Kind of series: Cytotoxicity assay (MTS), Zluc cells. Format: cell-based, human. As to the method:
(§1) The cytotoxicity assay measures the viability of cells after treatment with a test compound for 3 days in either GS4.1 cells or Zluc cells. […] The cytotoxicity assay is summarized as follows. Ninety-six-well tissue culture plates were seeded with GS4.1 or Zluc cells. Antiviral compound solutions were made up freshly in medium as 2×-concentrated stocks. Eight additional 3-fold drug dilutions were prepared from these stocks in medium for a total of 9 dilutions. At least four hours after the cells were seeded, drug treatment was initiated by adding one volume of each 2×-concentrated drug dilution to one volume of cells/medium in the tissue culture plates. Cells were then incubated for 3 days at 37° C./5% CO2. After 3 days of treatment, the CellTiter 96® Aqueous One Solution cell proliferation assay (Promega) was performed by adding the MTS solution to each well. The plates were then incubated at 37° C./5% CO2 for 3.5 hours. Plates were then read in a Victor^3V 1420 multilabel counter (Perkin Elmer) and CC50 concentrations were determined using Microsoft Excel and XLfit 4.1 software.

Series [1] has as its system HCV genotype 1b replicon (GS4.1 cells). Nature of the series: HCV replicon assay (NS4A ELISA). It is filed as cell-based, hepatitis C virus. As to conditions: 3 days. As to the method:
The biological activity of Compound 1, diastereomer 1 and diastereomer 2 was measured by monitoring expression of the NS4A protein by enzyme-linked immunosorbent assay (ELISA) and by luciferase assay as described below:
The HCV replicon assay measures the ability of a test compound to inhibit HCV replication in cell culture after 3 days of treatment in a human hepatoma cell line (Huh-7) bearing the HCV genotype 1b replicon (GS4.1 cells). The inhibition of HCV replication was measured by quantification of viral NS4A protein using an enzyme-linked immunosorbent assay (ELISA). […] Additionally, the replicon contains the neomycin phosphotransferase gene under the control of the HCV promoter (Source: Dr. Christoph Seeger, Fox Chase Cancer Center, Philadelphia, Pa.).
The NS4A ELISA assay is summarized as follows. Ninety-six-well tissue culture plates were seeded with GS4.1 cells. Antiviral compound solutions were made up freshly in medium as 2×-concentrated stocks. Eight additional 3-fold drug dilutions were prepared from these stocks in medium for a total of 9 dilutions. At least four hours after GS4.1 cells were seeded, drug treatment was initiated by adding one volume of each 2× concentrated drug dilution to one volume of cells/medium in the tissue culture plates. Cells were then incubated for 3 days at 37° C./5% CO2.
The media/compound was then removed from the plates and cells were fixed with acetone:methanol, washed three times with a wash solution, and then blocked for 1 hour with 10% fetal bovine serum in a balanced salt solution. Cells were washed three times and incubated with an anti-hepatitis C NS4A monoclonal antibody (Virogen Corp.) for 2 hours at 37° C. […] The reaction was stopped with diluted sulfuric acid (Mallinckrodt Chemicals) and absorbance measured on a Victor^3V 1420 multilabel counter (Perkin Elmer). EC50 values were calculated from dose response curves from the resulting best-fit equations determined by Microsoft Excel and XLfit 4.1 software.
In general terms: In antiviral work, replicon cells carry a viral genome segment that copies itself.

The subject of series [2] is GS4.1 cells. Nature of the series: Cytotoxicity assay (MTS), GS4.1 cells. It is filed as cell-based, human. To be noted: 3 days (NS4A-ELISA Assay). As to the method:
as §1
A general note: ELISA stands for enzyme-linked immunosorbent assay.

Series [3] deals with HCV genotype 1b replicon (Zluc cells). Kind of series: HCV luciferase replicon assay. It is filed as cell-based, hepatitis C virus. To be noted: 3 days. As to the method:
The HCV luciferase replicon assay measures the ability of a test compound to inhibit HCV replication in cell culture after 3 days of treatment in a human hepatoma cell line (Huh-7) bearing the HCV genotype 1b replicon and a luciferase-neomycin phosphotransferase fusion gene. The inhibition of HCV replication was measured by quantification of luciferase protein expression. The HCV luciferase replicon was constructed by fusing a luciferase gene to the amino terminus of the neomycin phosphotransferase gene of the ZS11 HCV replicon. The ZS11 HCV replicon (Zhu Q, Guo J-T, and Seeger C, 2003) is derived from the SP1 replicon, but contains three cell culture-adapted mutations: E1202G (NS3), S22041 (NS5A), and D2254E (NS5A). These mutations allow for efficient in vitro replication. The luciferase reporter gene was amplified from the pGL4.13[luc2/SV40] vector (Promega Corp.). The replicon resulting from the luciferase-neomycin fusion (ZS11-luc) was stably-transfected into Huh-7 cells, yielding the Zluc cell line.
The luciferase replicon assay is summarized as follows: Solid white 96-well tissue culture plates (BD Falcon) were seeded with Zluc cells. Antiviral compound solutions were made up freshly in medium as 2×-concentrated stocks. Eight additional 3-fold drug dilutions were prepared from these stocks in medium for a total of 9 dilutions. At least four hours after Zluc cells were seeded, drug treatment was initiated by adding one volume of each 2×-concentrated drug dilution to one volume of cells/medium in the tissue culture plates. Cells were then incubated for 3 days at 37° C./5% CO2.
The media/compound was then removed from the plates and the ONE-glo Luciferase assay reagent (Promega) was added to each well. The assay plates were shaken for 3 minutes at room temperature and luciferase activity for each well was measured with a 1 sec read time on the Victor^3V multilabel counter using a 700 nm cut-off filter (Perkin Elmer). EC50 values were calculated from dose response curves from the resulting best-fit equations determined by Microsoft Excel and XLfit 4.1 software.

Series [4] can be described thus: Cytotoxicity (MTS assay), 184R-A cells. Format: cell-based. As to conditions: human, 184R-A cells (S282T), 184R-A (S282T), N = 3. As to the method: (§2) Cells were plated and treated with inhibitors as described above.
In general terms: Tetrazolium assays rely on reduction of a dye to a coloured formazan, in cell work by metabolically active cells.

For series [5], the system named is HCV genotype 1b replicon (GS4.1 cells). Kind of series: In vitro combination of Compound 1 and ribavirin on HCV replicon (NS4A ELISA; MacSynergy II, CombiTool, CalcuSyn). Format: cell-based. As to conditions: Hepatitis C virus, 72 h, single-drug titration experiments, three days. As to the method: This setup was run in duplicate in each 96-well plate.
Cells were incubated with inhibitors for three days at 37° C./5% CO2.
After three days of drug treatment, media was removed from the plates via gentle tapping and the cells were fixed to the plates with 100 μL/well of 1:1 acetone:methanol.
After one minute of incubation at room temperature, plates were washed three times with 100 μL/well of ELISA wash solution and then blocked with 150 μL/well of 10% FBS-TNE.
After a one hour incubation period at 37° C., each plate was washed three times with 100 μL/well of ELISA wash solution. Color development was then initiated with 100 μL/well of OPD solution.
After a 30 minute incubation period in the dark at room temperature, reactions were stopped by adding 100 μL of 2NH2SO4 to each well.
The absorbance was measured at 490 nm on a Victor^3 V 1420 multilabel counter (Perkin Elmer).

The nature of series [6]: Cytotoxicity (MTS assay), GS4.1 cells, Example 18. Format: cell-based, human. To be noted: human, GS4.1 cells (wild-type); GS4.1 (wild-type), MTS assay, N = 3. As to the method: as §2
The test system of series [7] is GS4.1 cells. Kind of series: Cytotoxicity (MTS assay), GS4.1 cells, Example 18. It is filed as cell-based, human. To be noted: wild-type or S282T replicon cells treated with up to 100 μM. As to the method:
as §2

Series [8] has as its system GS4.1 cells. Nature of the series: Cytotoxicity of Compound 1 and RBV on GS4.1 cells using MTS assay (combination study). To be noted: three days, 0.6× to 1.5× EC50, alone or in combination. As to the method:
The readout of the assay was measured by the bioreduction of the yellow MTS tetrazolium compound to a purple formazan product. This conversion is mediated by NADPH or NADH in metabolically active cells and is therefore directly proportional to the number of live cells in a culture. Plates were setup as described above.
Cells were plated and treated with inhibitors using the drug matrix described above.
After three days of drug treatment, 20 μL of MTS was added to each well, and then plates were incubated at 37° C./5% CO2.

The subject of series [9] is S282T HCV replicon (184R-D2 cells). Kind of series: microbe, parasite or virus in culture. To be noted: Hepatitis C virus. As to the method: (§3) 1. […] Huh-7 cells were seeded into column 1 of each plate at a similar density.
(§4) 2. […] Eight additional 3-fold serial dilutions of each compound were prepared from the 2× stock in assay medium. Final drug concentrations ranged from 100 to 0.015 μM.
(§5) 3. […] This setup was run in duplicate in each 96-well plate.
(§6) 4. Cells were incubated with inhibitors for three days at 37° C./5% CO2.
(§7) 1. After three days of drug treatment, media was removed from the plates via gentle tapping and the cells were fixed to the plates with 100 μL/well of 1:1 acetone:methanol.
(§8) 2. After one minute of incubation at room temperature, plates were washed three times with 100 μL/well of ELISA wash solution and then blocked with 150 μL/well of 10% FBS-TNE.
(§9) 3. After a one hour incubation at room temperature, plates were washed three times with 100 μL/well of ELISA wash solution, and then 100 μL/well of mouse anti-hepatitis C […] mAb (1 mg/mL stock diluted 1:1,500 in 10% FBS-TNE) was added.
(§10) 4. Following 2 hours of incubation at 37° C., plates were washed three times with 100 μL/well of ELISA wash solution, and then 100 μL/well of HRP-goat anti-mouse antibody (diluted 1:4,000 in 10% FBS-TNE) was added.
(§11) 4. After a one hour incubation period at 37° C., each plate was washed three times with 100 μL/well of ELISA wash solution. Color development was then initiated with 100 μL/well of OPD solution.
(§12) 5. After a 30 minute incubation period in the dark at room temperature, reactions were stopped by adding 100 μL of 2NH2SO4 to each well.
(§13) 6. The absorbance was measured at 490 nm on a Victor^3 V 1420 multilabel counter (Perkin Elmer). The percent inhibition of HCV replicon replication was calculated for each drug using an average of the duplicate wells.

In series [10] the test system is wild-type HCV replicon (GS4.1 cells). Nature of the series: microbe, parasite or virus in culture. As to conditions: Hepatitis C virus. As to the method: as §3, §4, §5, §6, §7, §8, §9, §10, §11, §12, §13
Series [11] has as its system S282T HCV replicon (184R-A cells). Nature of the series: microbe, parasite or virus in culture. To be noted: Hepatitis C virus. As to the method:
3. The 184R-A cell line was derived by culturing wild-type replicon cells in the presence of 1 to 5 μM of Compound 1 for >100 days.
as §3, §4, §5, §6, §7, §8, §9, §10, §11, §12, §13

The nature of series [12]: Cytotoxicity (MTS assay), 184R-D2 cells. Format: cell-based. To be noted: human, 184R-D2 cells (S282T), 184R-D2 (S282T), N = 3. As to the method:
as §2

A word on the CC50: it is the concentration at which the toxic effect on the cells reaches its halfway point. Low values mean harm at low concentration, high ones better tolerance by the cells. In general, EC50 refers to the concentration at which the effect is half-maximal.

Turning to `CC(C)(CO)C(=O)SCCOP(=O)(NCc1ccccc1)OC[C@H]1O[C@@H](n2cnc3c(=O)[nH]c(N)nc32)[C@](C)(O)[C@@H]1O` (single isomer, unassigned; diastereomer 2) [Diastereomer 2], the CC50 in the series on Zluc cells and with GS4.1 cells [2] was over 100 µM in each case. Also, the EC50 in series [1] was found to be 0.244 ± 0.098 µM; in series [3] it was 0.0568 ± 0.0006 µM.
Turning to `NC(=O)c1ncn([C@@H]2O[C@H](CO)[C@@H](O)[C@H]2O)n1` [RBV, ribavirin, reference compound], the CC50 at 3 days in [4], in series [6] and in [12] was over 100 µM each time. Moreover, the EC50 is 21.8 ± 3.6 µM in series [5], 17 ± 3.5 µM in series [9], 38 ± 2.8 µM in series [10] and 12.3 ± 1.9 µM in [11]. The “in vitro cytotoxicity (MTS)” value in the series on GS4.1 cells [7] and in the series with GS4.1 cells [8] was “no evidence of in vitro cytotoxicity” each time.

The values are drawn from patent publication US20100003217A1, “Compounds and Pharmaceutical Compositions for the Treatment of Viral Infections” (priority 2008, published 2010).
